Molecular target: protein kinase C
Assay: enzyme assay of protein kinase C activated with phosphatidylserine and diacylglycerol
Format: biochemical
Conditions: protein kinase C activated with phosphatidylserine and iacylglycerol; according to EP-OS 0 255 126; read-out: concentration giving 50% inhibition of protein kinase C
Experimental: Compounds of the present invention are potent inhibitors of protein kinases, such as protein kinase C. […] The experiment was carried out according to EP-OS 0 255 126 (inhibition of protein kinase C).

CCn1c2ccccc2c2c3c(c(-c4ccccc4Cl)cc21)C(=O)NC3=O [Example 2a, 4-(2-Chlorophenyl)-6-ethyl-1,2,3,6-tetrahydro-1,3-dioxopyrrolo[3,4-c]carbazole] showed an IC50 of 580 nM.

Source: patent US4912107A, “Pyrrolocarbazole derivatives, compositions containing them, and methods for using them” (Goedecke Aktiengesellschaft, priority 1988, dated 1990)
